Among the test systems are NCI-H226; CAKI-1; SNB-19; COLO 205; M14; HT-29; OVCAR-3; 786-0; RPMI-8226; RXF 393; UACC-62; SF-295; LOX IMVI; UACC-257; SR; HL-60; NCI-H23; MCF7; PC-3.
Assay in all cases: inhibition of tumour cell growth, NCI panel, 48 h

Values joined by “and” are separate entries in the source; they are usually repeats but may differ in a detail not shown here. Equal entries are not always repeated.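 Step 1: Grow cells in 96-well plates. Step 2: Expose to compound for 48 hours at 5 concentrations. Step 3: Interpolate endpoints linearly; if unreached, use highest concentration. GI50 = concentration required for 50% inhibition of growth.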 Active and inactive are the calls of the source. Rule as the data show it: active = GI50 up to about 1.1 µM and inactive = higher. Some results are limits rather than exact numbers.

Turning to `COC(=O)C(/C(=N\O)C(=O)Nc1ccc(Br)cc1)c1nc2ccccc2nc1O` (centres undefined), the GI50 in the assay on NCI-H226 was 29 µM (inactive); with CAKI-1, > 100 µM (inactive); with SNB-19, 78.2 µM (inactive); in the assay with COLO 205, 18.5 µM (inactive); in the assay with M14 it was 58.9 µM (inactive); in the assay with HT-29, 57.1 µM (inactive). The GI50 in the assay with OVCAR-3 was 23.1 µM (inactive); in the assay with 786-0 it was 31 µM (inactive); in the assay on RPMI-8226, 26.9 µM (inactive); in the assay on RXF 393 it was 36.7 µM (inactive); with UACC-62 it was 26.9 µM (inactive); in the assay with SF-295, > 100 µM (inactive). Also, the GI50 with LOX IMVI was 22.7 µM (inactive); in the assay on UACC-257, > 100 µM (inactive); with SR, 18.2 µM (inactive); in the assay with HL-60 it was 21.8 µM (inactive); in the assay on NCI-H23 it was > 100 µM (inactive).

Regarding `CC(=O)OCC(OC(C)=O)C(OC(C)=O)C(/C=N\Nc1nc2ccccc2c(=O)[nH]1)OC(C)=O` (centres undefined), the GI50 in the assay with NCI-H226 was > 100 µM (inactive) and 89.9 µM (inactive); in the assay on CAKI-1 it was > 100 µM (inactive); in the assay on SNB-19 it was > 100 µM (inactive); with COLO 205 it was > 100 µM (inactive); in the assay with M14 it was > 100 µM (inactive); in the assay with HT-29, 26.2 µM (inactive) and 41.6 µM (inactive). Moreover, the GI50 was > 100 µM (inactive) with OVCAR-3; > 100 µM (inactive) with 786-0; 91.8 µM (inactive) with RPMI-8226; > 100 µM (inactive) in the assay on MCF7; > 100 µM (inactive) in the assay with UACC-62; > 100 µM (inactive) with SF-295. Moreover, the GI50 with LOX IMVI is > 100 µM (inactive); with PC-3 it was > 100 µM (inactive); in the assay on UACC-257 it was > 100 µM (inactive); with SR, > 100 µM (inactive); with HL-60, 67.9 µM (inactive) and 85.9 µM (inactive); in the assay with NCI-H23, > 100 µM (inactive).

For the compound `COc1ccc(C2C(Cl)C(=O)N2n2cnc3ccccc3c2=O)cc1OC` (centres undefined), the GI50 in the assay with NCI-H226 was 30.5 µM (inactive); with CAKI-1, > 100 µM (inactive); in the assay with SNB-19, 52.4 µM (inactive); in the assay on COLO 205, > 100 µM (inactive); with M14 it was > 100 µM (inactive); with HT-29, > 100 µM (inactive). The GI50 with OVCAR-3 is 44.6 µM (inactive); in the assay with 786-0, > 100 µM (inactive); in the assay on RPMI-8226, 81.1 µM (inactive); in the assay on RXF 393, 96.8 µM (inactive); in the assay on UACC-62, 74.1 µM (inactive); in the assay with SF-295, > 100 µM (inactive). Also, the GI50 in the assay with LOX IMVI was > 100 µM (inactive); in the assay with UACC-257, 32 µM (inactive); in the assay on SR, 38.7 µM (inactive); in the assay on HL-60, 57.7 µM (inactive); with NCI-H23, 42 µM (inactive).

As for `C[P+](C)(CC(F)(F)F)c1ccccc1`, the GI50 in the assay on NCI-H226, in the assay on SNB-19, with COLO 205, with M14, in the assay with HT-29 and in the assay with OVCAR-3 was > 100 µM (inactive) in each case. In addition, the GI50 with 786-0, in the assay on RPMI-8226, in the assay with RXF 393, in the assay with UACC-62, in the assay with SF-295 and in the assay on LOX IMVI was > 100 µM (inactive) in each case. The GI50 in the assay on UACC-257, in the assay on SR, in the assay on HL-60 and in the assay with NCI-H23 was > 100 µM (inactive) in each case.

For `CCOC(=O)CN1C(=O)C(=O)N(c2ccc(OC)c3ccccc23)C1=O`, the GI50 in the assay on NCI-H226 is 45.1 µM (inactive); in the assay with CAKI-1, > 100 µM (inactive); in the assay with SNB-19 it was > 100 µM (inactive); with COLO 205 it was > 100 µM (inactive); in the assay with M14, > 100 µM (inactive); with HT-29, > 100 µM (inactive). Also, the GI50 with OVCAR-3, in the assay with 786-0, with RPMI-8226, in the assay with RXF 393, in the assay with MCF7 and in the assay with UACC-62 was > 100 µM (inactive) each time. For the same compound, the GI50 in the assay with SF-295, with LOX IMVI, in the assay on PC-3, with UACC-257, with SR and with HL-60 was > 100 µM (inactive) throughout. Also, the GI50 in the assay on NCI-H23 is > 100 µM (inactive).

For the compound `O=C1CC[C@@]2(O)[C@H]3Cc4ccc(-c5cccc(O)c5)c5c4[C@@]2(CCN3CC2CC2)[C@H]1O5`, the GI50 is 29.3 µM (inactive) in the assay on NCI-H226; 37.6 µM (inactive) in the assay on CAKI-1; 4.3 µM (inactive) in the assay with SNB-19; 21 µM (inactive) with COLO 205; 12.1 µM (inactive) in the assay with M14; 11.3 µM (inactive) in the assay with HT-29. The GI50 in the assay on OVCAR-3 was 22 µM (inactive); in the assay with 786-0, 18.2 µM (inactive); with RPMI-8226, 23.3 µM (inactive); in the assay on RXF 393, 17.3 µM (inactive); in the assay on MCF7, 16.9 µM (inactive); with UACC-62 it was 10.7 µM (inactive). The GI50 was 19.8 µM (inactive) in the assay on SF-295; 12.9 µM (inactive) in the assay on LOX IMVI; 20.3 µM (inactive) in the assay on PC-3; 1.01 µM (active) with UACC-257; 26.3 µM (inactive) with SR; 0.0553 µM (active) in the assay with HL-60. The GI50 in the assay with NCI-H23 is 27 µM (inactive).

On to `N#CCN1CCOCCOCCN(CC#N)CCOCCOCC1`, for which the GI50 in the assay with NCI-H226, in the assay with CAKI-1, with SNB-19, with COLO 205, with M14 and in the assay with HT-29 was > 100 µM (inactive) each time. In addition, the GI50 in the assay with OVCAR-3, in the assay on 786-0, with RPMI-8226, in the assay with RXF 393, in the assay with UACC-62 and in the assay with SF-295 was > 100 µM (inactive) each time. In addition, the GI50 in the assay on LOX IMVI, in the assay with UACC-257, with SR, in the assay with HL-60 and in the assay with NCI-H23 was > 100 µM (inactive) in each case.

As for `O=c1[nH]c(=O)n(COCc2ccccc2)c2ccc([N+](=O)[O-])cc12`, the GI50 in the assay on NCI-H226, with CAKI-1, with COLO 205, in the assay with M14, in the assay on HT-29 and with OVCAR-3 was > 100 µM (inactive) in each case. Besides, the GI50 is 80 µM (inactive) in the assay with 786-0; > 100 µM (inactive) in the assay with RXF 393; > 100 µM (inactive) in the assay on MCF7; > 100 µM (inactive) in the assay with UACC-62; > 100 µM (inactive) in the assay with SF-295; > 100 µM (inactive) with LOX IMVI. Further, the GI50 with PC-3, with UACC-257, in the assay with SR and in the assay with HL-60 was > 100 µM (inactive) each time.

Consider `C#CC1/C(=C\C(=O)OC)CCCC1O` (centres undefined), for which the GI50 in the assay with NCI-H226, in the assay with CAKI-1, in the assay with SNB-19, in the assay with COLO 205, in the assay with M14 and in the assay on HT-29 was > 100 µM (inactive) in each case. Moreover, the GI50 with OVCAR-3, in the assay with 786-0, in the assay on RPMI-8226, in the assay on RXF 393, in the assay on UACC-62 and in the assay with SF-295 was > 100 µM (inactive) each time. For the same compound, the GI50 in the assay on UACC-257, with SR, in the assay on HL-60 and in the assay with NCI-H23 was > 100 µM (inactive) in each case.

For `CCC(=O)C12OC3OC(C)(C)OC3C1OC(C)(C)O2` (centres undefined), the GI50 in the assay with NCI-H226, in the assay on CAKI-1, in the assay with SNB-19, in the assay with M14, with HT-29 and in the assay on OVCAR-3 was > 100 µM (inactive) throughout. The GI50 in the assay with 786-0, in the assay with RXF 393, in the assay with UACC-62, with SF-295, in the assay with UACC-257 and with SR was > 100 µM (inactive) in each case. The GI50 in the assay on HL-60 and with NCI-H23 was > 100 µM (inactive) throughout.

As for `O=S1(=O)OCCOS(=O)(=O)C1S(=O)(=O)c1ccc2ccccc2c1`, the GI50 with CAKI-1, with SNB-19, in the assay with COLO 205, in the assay with M14, with HT-29 and in the assay on OVCAR-3 was > 100 µM (inactive) in each case. Besides, the GI50 in the assay with 786-0, in the assay on RPMI-8226, in the assay with MCF7, with SF-295, in the assay on LOX IMVI and in the assay on PC-3 was > 100 µM (inactive) throughout. In addition, the GI50 in the assay on UACC-257, in the assay on SR, in the assay with HL-60 and in the assay on NCI-H23 was > 100 µM (inactive) each time.

For the compound `Oc1ccc(-c2nc3cc(F)ccc3s2)cc1`, the GI50 in the assay with NCI-H226 is 17.3 µM (inactive); with CAKI-1 it was 23.7 µM (inactive); in the assay on SNB-19, 36.7 µM (inactive); in the assay with COLO 205, 18.6 µM (inactive); in the assay on M14, 20 µM (inactive); in the assay with HT-29, 23.3 µM (inactive). Further, the GI50 in the assay on OVCAR-3 was 19.2 µM (inactive); in the assay with 786-0, 28.6 µM (inactive); in the assay with RPMI-8226, 24 µM (inactive); with RXF 393 it was 27.4 µM (inactive); with MCF7 it was 1.14 µM (inactive); in the assay with UACC-62, 17.5 µM (inactive). Moreover, the GI50 was 19.6 µM (inactive) in the assay with SF-295; 17.9 µM (inactive) in the assay on LOX IMVI; 22.9 µM (inactive) in the assay on PC-3; 27.4 µM (inactive) with UACC-257; 2.38 µM (inactive) in the assay with SR; 21.7 µM (inactive) with HL-60. In the assay on NCI-H23, the GI50 was 32.3 µM (inactive).

The record behind these values is ChEMBL document CHEMBL1201862, “PubChem BioAssay data set” (2004).
